Measurements as given in patent publication US10238670B2, “9-aminomethyl minocycline compounds and methods of use thereof in urinary tract infection (UTI) treatment” (Paratek Pharmaceuticals, Inc., priority 2016, dated 2019).
In brackets after ≈: the same amount, converted by molar mass.

What was measured:
MS CoNS = test: In vitro MIC, 2010 surveillance isolates; format: cell-based, Coagulase-Negative Staphylococcus; details: for Cumulative % Inhibition at MIC: N=461; for % R (resistance): Eucast breakpoints
[1] = Phase 1 studies, plasma pharmacokinetics (IV and oral)
Phase 1 studies, safety = format: in vivo, human
Experimental: In the Phase 1 studies, 536 subjects were exposed to Compound 1 IV or oral formulations. Single IV doses up to 600 mg and single oral doses up to 600 mg have been investigated. Multiple IV doses of 100 mg once daily and 200 mg once daily for up to 14 and 7 consecutive days, respectively, have been investigated.

[2] = 14C-labeled Compound 1 single oral 300 mg dose, plasma and urine; format: in vivo, human; details: for AUC(0-inf): 300 mg
Experimental: ^14C-labeled Compound 1 was administered as a single oral 300 mg dose to healthy human subjects. […] The concentrations of Compound 1 in urine are shown in Table 2 and indicate that urine concentrations exceed the plasma concentrations throughout the dosing interval. The AUC0-24 in urine was 186.1 μg*hr/ml.
While the driver of efficacy for Compound 1 in UTI is not completely known, and while not wishing to be bound by any particular theory, Applicant believes that maximizing time of urine concentration above pathogen MIC (ideally, throughout the dosing interval) is desirable. This belief is partly based on a clinical study that evaluated the disposition of a single 300 mg oral dose of ^14C-Compound 1. In this study, plasma concentrations were consistent with previous oral dosing studies (area under the concentration-time curve from 0 to infinity [AUC0-inf] 9.4 μg·h/mL), and it was determined that approximately 40% of the absorbed dose was eliminated in the urine. Urine concentrations of Compound 1 were not measured directly but estimated concentrations (based on portion of excreted radioactivity) exceeded plasma concentrations and averaged between 7.6 and 11.2 μg/mL over the 24 hours following dosing. These urine concentrations would exceed the MIC90 for ESBL-producing E. coli (4 μg/mL) by approximately 2-fold. It is also known from Applicant's clinical studies that exposure to Compound 1 based on plasma concentrations is approximately 50% higher at steady-state than after a single dose.

S. saprophyticus = test: In vitro MIC90 against common uncomplicated UTI pathogens; format: cell-based; details: Staphylococcus saprophyticus
Experimental: The minimum inhibitory concentrations for at least 90% of the isolates (MIC90) tested for Compound 1 against these common pathogens are 1 μg/mL for S. saprophyticus, 2 μg/mL for ESBL-negative E. coli, and 4 μg/mL for ESBL-producing E. coli.

Citrobacter spp. = test: In vitro MIC, 2010 surveillance isolates; format: cell-based; details: N=253

Compound: CN(C)c1cc(CNCC(C)(C)C)c(O)c2c1C[C@H]1C[C@H]3[C@H](N(C)C)C(O)=C(C(N)=O)C(=O)[C@@]3(O)C(O)=C1C2=O [Compound 1, 9-[(2,2-dimethyl-propylamino)-methyl]-minocycline]
- MIC90 (MS CoNS; Asia/Pac, N=18): 0.25 µg/mL (≈ 0.449 µM)
- MIC90 (MS CoNS; Europe, N=185): 1 µg/mL (≈ 1.8 µM)
- MIC90 (MS CoNS; L. Amer, N=67): 0.5 µg/mL (≈ 0.898 µM)
- Cumulative % Inhibition at MIC (MS CoNS; MIC 1 μg/ml): 99.8%
- Cumulative % Inhibition at MIC (MS CoNS; MIC 2 μg/ml): 100%
- Cumulative % Inhibition at MIC (MS CoNS; MIC ≤0.5 μg/ml): 92.4%
- MIC90 (MS CoNS; N America, N=191): 0.5 µg/mL (≈ 0.898 µM)
- bioequivalence of tablet and IV dose ([1]; 300 mg dose of tablet): bioequivalent to a 100 mg IV dose
- half-life ([1]; human, in vivo): ~18 h
- Cmax ([1]; human, in vivo, iv, 100 mg): ~1800 ng/mL
- exposure based on plasma concentrations, higher at steady-state than after a single dose ([1]; steady state vs single dose): approximately 50%
- steady state AUC (IV and oral) and Cmax (oral) relative to single IV or oral dose ([1]; steady state vs single dose): approximately 1.5 ×
- discontinuations due to drug-related adverse events (Phase 1 studies, safety; all Phase 1 studies, subjects who received multiple doses): no discontinuations due to drug-related adverse events
- serious adverse events (Phase 1 studies, safety; multiple p.o. doses of 200 mg and 300 mg once daily for up to 10 consecutive days): without any serious adverse events
- absorbed dose eliminated in the urine ([2]; human, in vivo, po): approximately 40%
- estimated concentrations in urine, average over 24 hours ([2]; human, in vivo, po): 7.6 and 11.2
- urine concentration relative to 4 μg/mL (MIC90 for ESBL-producing E. coli) ([2]; human, in vivo, po): approximately 2 fold
- AUC(0-inf) ([2]; human, in vivo, po, plasma AUC0-inf): 9400 ng·h/mL
- AUC(0-inf) ([2]; human, in vivo, po, plasma AUCinf): 9420 ng·h/mL
- plasma Cmax ([2]; single oral 300 mg dose, healthy subjects): 563 ng/mL
- MIC90 (S. saprophyticus): 1 µg/mL (≈ 1.8 µM)
- Cumulative % Inhibition at MIC (Citrobacter spp.; MIC 1 μg/ml): 44.7%
- Cumulative % Inhibition at MIC (Citrobacter spp.; MIC 2 μg/ml): 79.1%
- Cumulative % Inhibition at MIC (Citrobacter spp.; MIC 4 μg/ml): 93.3%
- Cumulative % Inhibition at MIC (Citrobacter spp.; MIC 8 μg/ml): 97.6%
- Cumulative % Inhibition at MIC (Citrobacter spp.; MIC 16 μg/ml): 100%
- Cumulative % Inhibition at MIC (Citrobacter spp.; MIC ≤0.5 μg/ml, listed as head image P00016): 14.6%

Compound: CN(C)c1cc(NC(=O)CNC(C)(C)C)c(O)c2c1C[C@H]1C[C@H]3[C@H](N(C)C)C(O)=C(C(N)=O)C(=O)[C@@]3(O)C(O)=C1C2=O [Tigecycline]
- % R (resistance) (MS CoNS; Asia/Pac): 0%
- MIC90 (MS CoNS; Asia/Pac, N=18): 0.25 µg/mL (≈ 0.427 µM)
- % R (resistance) (MS CoNS; Europe): 0%
- MIC90 (MS CoNS; Europe, N=185): 0.25 µg/mL (≈ 0.427 µM)
- MIC90 (MS CoNS; L. Amer, N=67): 0.25 µg/mL (≈ 0.427 µM)
- MIC90 (MS CoNS; N America, N=191): 0.25 µg/mL (≈ 0.427 µM)
